Reference: patent US10941157B2, “Pesticidal compositions and uses thereof” (Gilead Apollo, LLC, priority 2015, dated 2021)
Converted amounts (≈) assume the structure as drawn.

Assays:
[1] = tested on: Blumeria graminis f. sp. hordei; assay: Foliar protection test for barley powdery mildew control; type: in vivo; details: foliar spray on Hordeum vulgare cv. Perry, inoculated 24 hours after treatment, evaluated 7 days later
Summary of the method: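 Protective foliar test: compound atomized onto both leaf surfaces of 6-day-old Hordeum vulgare cv. Perry, followed after 24 h by spore-cloud inoculation from colonized untreated plants. Disease rated on leaves 7 days on, plants held at 20 to 22° C and 70% RH.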

[2] = tested on: Phakopsora pachyrhizi; assay: Foliar protection test for Asian soybean rust control; type: in vivo; details: foliar application to soybean (Glycine max AG4832), percent disease area evaluated 14 days later
[3] = tested on: Phytophthora capsici (Pc); assay: In vitro pathogen growth inhibition assay, Pc; type: cell-based; details: 48 h, ≥90% growth inhibition, 48 hours, vs 2% DMSO control, read-out: Compound Concentration (ppm) sufficient for ≥90% inhibition of Pc
Summary of the method: (§1)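 Spores of Dm, Fv and Pc were diluted in 17% V8 liquid medium; Rs used 1.5 mm mycelial plugs in ¼ PDB. Compounds from 2.5 mg/ml DMSO stocks were combined with inoculum, growth was read by OD600 at 24 and 48 h with blank subtraction, and the reported value is the concentration giving ≥90% inhibition.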

[4] = tested on: Sphaerotheca fuliginea; assay: Foliar protection for cucumber powdery mildew control; type: in vivo; details: foliar spray on Cucumis sativus cv. Straight Eight, inoculated 24 hours after treatment, evaluated 7 days later
Summary of the method: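 Protective foliar spray on 10-day-old Straight Eight cucumbers, with S. fuliginea spores dusted from infected stock plants 24 h after treatment. Disease developed at 23–27 °C, 60% RH and a 16 h photoperiod. Leaves were rated for mildew growth after 7 days; test rates 10 ppm or below.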

[5] = tested on: Fusarium virguliforme (Fv); assay: In vitro pathogen growth inhibition assay, Fv; type: cell-based; details: ≥90% growth inhibition, 48 hours, vs 2% DMSO control, read-out: Compound Concentration (ppm) sufficient for ≥90% inhibition of Fv
Summary of the method: as §1

[6] = tested on: Rhizoctonia solani (Rs); assay: In vitro pathogen growth inhibition assay, Rs (mycelial plugs); type: cell-based; details: Rhizoctonia solani, 48 h, ≥90% growth inhibition; mycelial plugs; 48 hours; vs 2% DMSO control; read-out: Compound Concentration (ppm) sufficient for ≥90% inhibition of Rs
Summary of the method: as §1

[7] = tested on: Puccinia triticina; assay: Foliar protection test for wheat leaf rust control; type: in vivo; details: foliar application to wheat (Triticum aestivum cv. Winterhawk), evaluated 10 days later
[8] = tested on: Fusarium graminearum; type: in vivo; details: spray on flowering Triticum aestivum cv. Samson, inoculated 24 hours after treatment, evaluated 14 days later
[9] = tested on: Collectotrichum graminicola (Cg); assay: In vitro pathogen growth inhibition assay, Cg; type: cell-based; details: 48 h, ≥90% growth inhibition; 48 hours; vs 2% DMSO control; read-out: Compound Concentration (ppm) sufficient for ≥90% inhibition of Cg
Summary of the method: (§2)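 Value reported is the compound concentration reaching ≥90% growth inhibition, from OD readings at 24 and 48 h after blank subtraction, confirmed visually. Inoculum was spores diluted in 17% V8 medium, except Rs, using 1.5 mm mycelial plugs in ¼ PDB; actual compound concentration corrected via OD600.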

[10] = tested on: Fusarium moniliforme (Fm); assay: In vitro pathogen growth inhibition assay, Fm; type: cell-based; details: Fusarium verticillioides; ≥90% growth inhibition; 48 hours; vs 2% DMSO control; read-out: Compound Concentration (ppm) sufficient for ≥90% inhibition of Fm
Summary of the method: as §2

[11] = tested on: Septoria tritici (St); assay: In vitro pathogen growth inhibition assay, St; type: cell-based; details: Zymoseptoria tritici, 48 h, ≥90% growth inhibition; 48 hours; vs 2% DMSO control; read-out: Compound Concentration (ppm) sufficient for ≥90% inhibition of St
Summary of the method: as §2

[12] = tested on: Botrtyis cinerea (Bc); assay: In vitro pathogen growth inhibition assay, Bc; type: cell-based; details: 48 h, ≥90% growth inhibition; 48 hours; vs 2% DMSO control; read-out: Compound Concentration (ppm) sufficient for ≥90% inhibition of Bc
Summary of the method: as §2

[13] = tested on: Mycosphaerella graminicola (synthetic Septoria tritici); assay: Foliar protection test for wheat septoria leaf blotch control; type: in vivo; details: foliar spray on Triticum aestivum cv. WinterHawk, inoculated 1 hour after treatment, evaluated 16 days later
[14] = tested on: Diplodia maydis (Dm); assay: In vitro pathogen growth inhibition assay, Dm; type: cell-based; details: Stenocarpella maydis, 48 h, ≥90% growth inhibition; 48 hours; vs 2% DMSO control; read-out: Compound Concentration (ppm) sufficient for ≥90% inhibition of Dm
Summary of the method: as §1

SMILES | Barley Powdery Mildew Control at a compound concentration of 10 ppm or lower [1] | Asian Soybean Rust Control at a compound concentration of 25 ppm or lower [2] | IC90 [3] [µg/mL] | Cucumber Powdery Mildew Control at a compound concentration of 10 ppm or lower [4] | IC90 [5] [µg/mL] | IC90 [6] [µg/mL] | Wheat Leaf Rust Control at a compound concentration of 10 ppm or lower [7] | Wheat Fusarium Head Blight Control at a compound concentration of 25 ppm or lower [8] | IC90 [9] [µg/mL] | IC90 [10] [µg/mL] | IC90 [11] [µg/mL] | IC90 [12] [µg/mL] | Septoria Leaf Blotch Control at a compound concentration of 25 ppm or lower [13] | IC90 [14] [µg/mL]
CCOC(=O)c1sc2c(c1C)c(=O)n(C(C)(C)C(=O)NC(C)C)c(=O)n2C[C@H](OCCO)c1cc(F)ccc1OC [Compound I-184, (R)-ethyl-1-(2-(5-fluoro-2-methoxyphenyl)-2-(2-hydroxyethoxy)ethyl)-3-(1-(isopropylamino)-2-methyl-1-oxopropan-2-yl)-5-methyl-2,4-dioxo-1,2,3,4-tetrahydrothieno[2,3-d]pyrimidine-6-carboxylate] | A (from 70% to 84% control of barley powdery mildew) | B (from 50 to 69% control of Asian soybean rust) | 50 (≈ 84.2 µM) | AA (≥85% control of cucumber powdery mildew) | 2 (≈ 3.37 µM) | 0.08 (≈ 0.135 µM) | AA (≥85% control of wheat leaf rust) | A (from 70% to 84% control of wheat fusarium head blight) | 0.4 (≈ 0.674 µM) | 0.08 (≈ 0.135 µM) | > 50 | 2 (≈ 3.37 µM) | C (from 25 to 49% control of wheat septoria leaf blotch) | 0.4 (≈ 0.674 µM)
CCOC(=O)c1sc2c(c1C)c(=O)n(C(C)(C)C(=O)NC(C)C)c(=O)n2C[C@H](O)c1cc(F)ccc1OC [Compound I-186, (R)-ethyl-1-(2-(5-fluoro-2-methoxyphenyl)-2-hydroxyethyl)-3-(1-(isopropylamino)-2-methyl-1-oxopropan-2-yl)-5-methyl-2,4-dioxo-1,2,3,4-tetrahydrothieno[2,3-d]pyrimidine-6-carboxylate] | A (from 70% to 84% control of barley powdery mildew) | D (<25% control of Asian soybean rust) | > 50 | C (from 25 to 49% control of cucumber powdery mildew) | 0.08 (≈ 0.146 µM) | 0.4 (≈ 0.728 µM) | C (from 25 to 49% control of wheat leaf rust) | B (from 50 to 69% control of wheat fusarium head blight) | 2 (≈ 3.64 µM) | 0.08 (≈ 0.146 µM) | > 50 | 0.4 (≈ 0.728 µM) | D (<25% control of wheat septoria leaf blotch) | 2 (≈ 3.64 µM)
COc1ccc(F)cc1[C@@H](O)Cn1c(=O)n([C@H](C)C(=O)N(C)C(C)C)c(=O)c2c(C)c(-n3nccn3)sc21 [Compound I-188, (R)-2-(1-((R)-2-(5-fluoro-2-methoxyphenyl)-2-hydroxyethyl)-5-methyl-2,4-dioxo-6-(2H-1,2,3-triazol-2-yl)-1,4-dihydrothieno[2,3-d]pyrimidin-3 (2H)-yl)-N-isopropyl-N-methylpropanamide] | AA (≥85% control of barley powdery mildew) | B (from 50 to 69% control of Asian soybean rust) | > 50 | AA (≥85% control of cucumber powdery mildew) | 0.4 (≈ 0.734 µM) | 0.4 (≈ 0.734 µM) | AA (≥85% control of wheat leaf rust) | D (<25% control of wheat fusarium head blight) | 2 (≈ 3.67 µM) | 0.08 (≈ 0.147 µM) | > 50 | 0.4 (≈ 0.734 µM) | C (from 25 to 49% control of wheat septoria leaf blotch) | 2 (≈ 3.67 µM)
COc1ccc(F)cc1[C@@H](O)Cn1c(=O)n([C@@H](C)C(=O)N(C)C(C)C)c(=O)c2c(C)c(-n3nccn3)sc21 [Compound I-189, (S)-2-(1-((R)-2-(5-fluoro-2-methoxyphenyl)-2-hydroxyethyl)-5-methyl-2,4-dioxo-6-(2H-1,2,3-triazol-2-yl)-1,4-dihydrothieno[2,3-d]pyrimidin-3 (2H)-yl)-N-isopropyl-N-methylpropanamide] | AA (≥85% control of barley powdery mildew) | A (from 70% to 84% control of Asian soybean rust) | > 50 | AA (≥85% control of cucumber powdery mildew) | 0.4 (≈ 0.734 µM) | 0.08 (≈ 0.147 µM) | AA (≥85% control of wheat leaf rust) | C (from 25 to 49% control of wheat fusarium head blight) | 0.4 (≈ 0.734 µM) | 0.08 (≈ 0.147 µM) | 50 (≈ 91.8 µM) | 0.4 (≈ 0.734 µM) | A (from 70% to 84% control of wheat septoria leaf blotch) | 0.4 (≈ 0.734 µM)
COc1ccccc1[C@H](Cn1c(=O)n(C(C)(C)C(=O)NC(C)C)c(=O)c2c(C)c(-n3cccn3)sc21)OCCC#N [Compound I-192, (R)-2-(1-(2-(2-cyanoethoxy)-2-(2-methoxyphenyl)ethyl)-5-methyl-2,4-dioxo-6-(1H-pyrazol-1-yl)-1,4-dihydrothieno[2,3-d]pyrimidin-3 (2H)-yl)-N-isopropyl-2-methylpropanamide] | AA (≥85% control of barley powdery mildew) | AA (≥85% control of Asian soybean rust) | 50 (≈ 86.4 µM) | AA (≥85% control of cucumber powdery mildew) | 0.4 (≈ 0.691 µM) | 0.08 (≈ 0.138 µM) | AA (≥85% control of wheat leaf rust) | D (<25% control of wheat fusarium head blight) | ≥ 2 | 0.08 (≈ 0.138 µM) | ≥ 50 | 0.4 (≈ 0.691 µM) | A (from 70% to 84% control of wheat septoria leaf blotch) | 2 (≈ 3.46 µM)
